# Molecular target: T1, Trx-6×His-BCL6 (human BCL6 BTB domain covering amino-acid sequence 5-129) (Homo sapiens, UniProt P41182)
# T1 construct: made in house
# Experiment: HTRF assay (BCL6 / BCOR peptide)
# Type: binding
# Conditions: 1 nM Trx-6×His-BCL6, 300 nM BCOR-AF633 peptide, 2 hours incubation at room temperature
# Experimental: After 2 hours incubation at room temperature the plate was read on a Pherastar FSX (BMG Labtech) plate reader equipped with 337 nm laser excitation filter, a first emission filter at 620 nm and a second emission filter at 665 nm. The % inhibition at each concentration was calculated by normalising FRET ratio to the appropriate high (DMSO with all reagents) and low (DMSO without BCL6) controls.
row,HTRF avg pIC50,SMILES
1,8.43,"COC1CN(c2ncc(Cl)c(Nc3ccc4c(c3)c3c(c(=O)n4C)OCC(F)(F)[C@H](C4CC4)N3)n2)C1 [Example 11w, (S)-10-((5-chloro-2-(3-methoxyazetidin-1-yl)pyrimidin-4-yl)amino)-2-cyclopropyl-3,3-difluoro-7-methyl-1,2,3,4-tetrahydro-[1,4]oxazepino[2,3-c]quinolin-6(7H)-one]"

# Same assay, conditions: 1 nM Trx-6×His-BCL6, 300 nM BCOR-AF633 peptide, 2 hours incubation at room temperature; read-out: HTRF avg pIC50 (converted)
row,IC50,SMILES
1,4.07 nM,"Cn1c(=O)c2c(c3cc(Nc4nc(N5CC(C#N)C5)ncc4Cl)ccc31)N[C@@H](C1CC1)C(F)(F)CO2 [Example 11p, (S)-1-(5-chloro-4-((2-cyclopropyl-3,3-difluoro-7-methyl-6-oxo-1,2,3,4,6,7-hexahydro-[1,4]oxazepino[2,3-c]quinolin-10-yl)amino)pyrimidin-2-yl)azetidine-3-carbonitrile]"
2,4.79 nM,"Cn1c(=O)c2c(c3cc(Nc4nc(N5CC(F)C5)ncc4Cl)ccc31)N[C@@H](C1CC1)C(F)(F)CO2 [Example 11q, (S)-10-((5-chloro-2-(3-fluoroazetidin-1-yl)pyrimidin-4-yl)amino)-2-cyclopropyl-3,3-difluoro-7-methyl-1,2,3,4-tetrahydro-[1,4]oxazepino[2,3-c]quinolin-6(7H)-one]"
3,3.89 nM,"Cn1c(=O)c2c(c3cc(Nc4nc(N5CC(C)(C#N)C5)ncc4Cl)ccc31)N[C@@H](C1CC1)C(F)(F)CO2 [Example 11s, (S)-1-(5-chloro-4-((2-cyclopropyl-3,3-difluoro-7-methyl-6-oxo-1,2,3,4,6,7-hexahydro-[1,4]oxazepino[2,3-c]quinolin-10-yl)amino)pyrimidin-2-yl)-3-methylazetidine-3-carbonitrile]"
4,3.47 nM,"Cn1c(=O)c2c(c3cc(Nc4nc(N5CC(CC#N)C5)ncc4Cl)ccc31)N[C@@H](C1CC1)C(F)(F)CO2 [Example 11t, (S)-2-(1-(5-chloro-4-((2-cyclopropyl-3,3-difluoro-7-methyl-6-oxo-1,2,3,4,6,7-hexahydro-[1,4]oxazepino[2,3-c]quinolin-10-yl)amino)pyrimidin-2-yl)azetidin-3-yl)acetonitrile]"
5,11.5 nM,"Cn1c(=O)c2c(c3cc(Nc4nc(N5CC(C(F)F)C5)ncc4Cl)ccc31)N[C@@H](C1CC1)C(F)(F)CO2 [Example 11u, (S)-10-((5-chloro-2-(3-(difluoromethyl)azetidin-1-yl)pyrimidin-4-yl)amino)-2-cyclopropyl-3,3-difluoro-7-methyl-1,2,3,4-tetrahydro-[1,4]oxazepino[2,3-c]quinolin-6(7H)-one]"
6,5.37 nM,"Cn1c(=O)c2c(c3cc(Nc4nc(N5CCC5)ncc4Cl)ccc31)N[C@@H](C1CC1)C(F)(F)CO2 [Example 11v, (S)-10-((2-(azetidin-1-yl)-5-chloropyrimidin-4-yl)amino)-2-cyclopropyl-3,3-difluoro-7-methyl-1,2,3,4-tetrahydro-[1,4]oxazepino[2,3-c]quinolin-6(7H)-one]"
7,3.55 nM,"COC1(C)CN(c2ncc(Cl)c(Nc3ccc4c(c3)c3c(c(=O)n4C)OCC(F)(F)[C@H](C4CC4)N3)n2)C1 [Example 11x, (S)-10-((5-chloro-2-(3-methoxy-3-methylazetidin-1-yl)pyrimidin-4-yl)amino)-2-cyclopropyl-3,3-difluoro-7-methyl-1,2,3,4-tetrahydro-[1,4]oxazepino[2,3-c]quinolin-6(7H)-one]"
8,2.51 nM,"C[C@@H]1C[C@H](N)CN(c2ncc(Cl)c(Nc3ccc4c(c3)c3c(c(=O)n4C)OCC(F)(F)[C@H](C4CC4)N3)n2)C1 [Example 12b, (S)-10-((2-((3S,5R)-3-amino-5-methylpiperidin-1-yl)-5-chloropyrimidin-4-yl)amino)-2-cyclopropyl-3,3-difluoro-7-methyl-1,2,3,4-tetrahydro-[1,4]oxazepino[2,3-c]quinolin-6(7H)-one]"
9,2.95 nM,"C[C@H]1C[C@@H](N)CN(c2ncc(Cl)c(Nc3ccc4c(c3)c3c(c(=O)n4C)OCC(F)(F)[C@H](C4CC4)N3)n2)C1 [Example 12c, (S)-10-((2-((3R,5S)-3-amino-5-methylpiperidin-1-yl)-5-chloropyrimidin-4-yl)amino)-2-cyclopropyl-3,3-difluoro-7-methyl-1,2,3,4-tetrahydro-[1,4]oxazepino[2,3-c]quinolin-6(7H)-one]"

# Further lines, the compound ahead of its results:
row,SMILES,IC50
1,"CN(CCC(C)(C)O)c1ncc(Cl)c(Nc2ccc3c(c2)c2c(c(=O)n3C)OCC(F)(F)[C@H](C3CC3)N2)n1 [Example 9v, (S)-10-((5-chloro-2-((3-hydroxy-3-methylbutyl)(methyl)amino)pyrimidin-4-yl)amino)-2-cyclopropyl-3,3-difluoro-7-methyl-1,2,3,4-tetrahydro-[1,4]oxazepino[2,3-c]quinolin-6(7H)-one]",4.68 nM
2,"Cn1c(=O)c2c(c3cc(Nc4nc(N5CC6(CN(CC7CC7)C6)C5)ncc4Cl)ccc31)N[C@@H](C1CC1)C(F)(F)CO2 [Example 9w, (S)-10-((5-chloro-2-(6-(cyclopropylmethyl)-2,6-diazaspiro[3.3]heptan-2-yl)pyrimidin-4-yl)amino)-2-cyclopropyl-3,3-difluoro-7-methyl-1,2,3,4-tetrahydro-[1,4]oxazepino[2,3-c]quinolin-6(7H)-one]",2.75 nM
3,"Cn1c(=O)c2c(c3cc(Nc4nc(N5CC6(CN(CC7CC7(F)F)C6)C5)ncc4Cl)ccc31)N[C@@H](C1CC1)C(F)(F)CO2 (stereo partly drawn) [Example 9x, (2S)-10-((5-chloro-2-(6-((2,2-difluorocyclopropyl)methyl)-2,6-diazaspiro[3.3]heptan-2-yl)pyrimidin-4-yl)amino)-2-cyclopropyl-3,3-difluoro-7-methyl-1,2,3,4-tetrahydro-[1,4]oxazepino[2,3-c]quinolin-6(7H)-one]",3.47 nM
4,"Cn1c(=O)c2c(c3cc(Nc4nc(N5CC6CCC(C5)N6CC5CC5)ncc4Cl)ccc31)N[C@@H](C1CC1)C(F)(F)CO2 [Example 9y, (2S)-10-((5-chloro-2-(8-(cyclopropylmethyl)-3,8-diazabicyclo[3.2.1]octan-3-yl)pyrimidin-4-yl)amino)-2-cyclopropyl-3,3-difluoro-7-methyl-1,2,3,4-tetrahydro-[1,4]oxazepino[2,3-c]quinolin-6(7H)-one]",2.75 nM
5,"Cn1c(=O)c2c(c3cc(Nc4nc(N5CC6CCC(C5)N6CC5CC5(F)F)ncc4Cl)ccc31)N[C@@H](C1CC1)C(F)(F)CO2 (stereo partly drawn) [Example 9za, (2S)-10-((5-chloro-2-(8-((2,2-difluorocyclopropyl)methyl)-3,8-diazabicyclo[3.2.1]octan-3-yl)pyrimidin-4-yl)amino)-2-cyclopropyl-3,3-difluoro-7-methyl-1,2,3,4-tetrahydro-[1,4]oxazepino[2,3-c]quinolin-6(7H)-one]",7.59 nM
6,"C[C@@H]1C[C@@H](O)CN(c2ncc(Cl)c(Nc3ccc4c(c3)c3c(c(=O)n4C)OCC(F)(F)[C@H](C4CC4)N3)n2)C1 [Example 9zb, (S)-10-((5-chloro-2-((3R,5R)-3-hydroxy-5-methylpiperidin-1-yl)pyrimidin-4-yl)amino)-2-cyclopropyl-3,3-difluoro-7-methyl-1,2,3,4-tetrahydro-[1,4]oxazepino[2,3-c]quinolin-6(7H)-one]",9.77 nM
7,"CN1CCCN(c2ncc(Cl)c(Nc3ccc4c(c3)c3c(c(=O)n4C)OCC(F)(F)[C@H](C4CC4)N3)n2)CC1 [Example 11a, (2S)-10-[[5-chloro-2-(4-methyl-1,4-diazepan-1-yl)pyrimidin-4-yl]amino]-2-cyclopropyl-3,3-difluoro-7-methyl-2,4-dihydro-1H-[1,4]oxazepino[2,3-c]quinolin-6-one]",2.75 nM
8,"Cn1c(=O)c2c(c3cc(Nc4nc(N5C[C@H](O)C[C@H](O)C5)ncc4Cl)ccc31)N[C@@H](C1CC1)C(F)(F)CO2 [Example 11e, (S)-10-((5-chloro-2-((3R,5S)-3,5-dihydroxypiperidin-1-yl)pyrimidin-4-yl)amino)-2-cyclopropyl-3,3-difluoro-7-methyl-1,2,3,4-tetrahydro-[1,4]oxazepino[2,3-c]quinolin-6(7H)-one]",0.871 nM
9,"CCCN(C)c1ncc(Cl)c(Nc2ccc3c(c2)c2c(c(=O)n3C)OCC(F)(F)[C@H](C3CC3)N2)n1 [Example 11i, (S)-10-((5-chloro-2-(methyl(propyl)amino)pyrimidin-4-yl)amino)-2-cyclopropyl-3,3-difluoro-7-methyl-1,2,3,4-tetrahydro-[1,4]oxazepino[2,3-c]quinolin-6(7H)-one]",30.9 nM
10,"CCCN(CCO)c1ncc(Cl)c(Nc2ccc3c(c2)c2c(c(=O)n3C)OCC(F)(F)[C@H](C3CC3)N2)n1 [Example 11k, (S)-10-((5-chloro-2-((2-hydroxyethyl)(propyl)amino)pyrimidin-4-yl)amino)-2-cyclopropyl-3,3-difluoro-7-methyl-1,2,3,4-tetrahydro-[1,4]oxazepino[2,3-c]quinolin-6(7H)-one]",9.77 nM
11,"Cn1c(=O)c2c(c3cc(Nc4nc(N5CCCC6(CC6)C5)ncc4Cl)ccc31)N[C@@H](C1CC1)C(F)(F)CO2 [Example 11l, (S)-10-((5-chloro-2-(5-azaspiro[2.5]octan-5-yl)pyrimidin-4-yl)amino)-2-cyclopropyl-3,3-difluoro-7-methyl-1,2,3,4-tetrahydro-[1,4]oxazepino[2,3-c]quinolin-6(7H)-one]",44.7 nM
12,"Cn1c(=O)c2c(c3cc(Nc4nc(N5CC(C)(C)C5)ncc4Cl)ccc31)N[C@@H](C1CC1)C(F)(F)CO2 [Example 11n, (S)-10-((5-chloro-2-(3,3-dimethylazetidin-1-yl)pyrimidin-4-yl)amino)-2-cyclopropyl-3,3-difluoro-7-methyl-1,2,3,4-tetrahydro-[1,4]oxazepino[2,3-c]quinolin-6(7H)-one]",14.8 nM
13,"CC1CN(c2ncc(Cl)c(Nc3ccc4c(c3)c3c(c(=O)n4C)OCC(F)(F)[C@H](C4CC4)N3)n2)C1 [Example 11o, (S)-10-((5-chloro-2-(3-methylazetidin-1-yl)pyrimidin-4-yl)amino)-2-cyclopropyl-3,3-difluoro-7-methyl-1,2,3,4-tetrahydro-[1,4]oxazepino[2,3-c]quinolin-6(7H)-one]",7.59 nM
